Test results as given in patent US4496551A (priority 1983, dated 1985).

How the values were obtained:
Format in all cases: in vivo
Venturia inaequalis = assay: apple scab control on apple seedlings; conditions: Venturia inaequalis; 100 ppm
Procedure: Compounds of this invention were dissolved in acetone in an amount equal to 6% of the final volume and then suspended at a concentration of 100 ppm in purified water containing 250 ppm of the surfactant TREM 014 (polyhydric alcohol esters). This suspension was sprayed to the point of run-off on apple seedlings. The following day, the plants were inoculated with a spore suspension of the fungus Venturia inaequalis, causal agent of apple scab, and incubated in a saturated humidity chamber at 20° for 24 hours and then in a growth room for an additional 10-12 days. Treated plants from successful treatments had few or no apple scab lesions when compared to untreated plants which were covered with scab lesions.

Pyricularia oryzae = assay: whole plant or invertebrate; conditions: 168 h, read-out: % Control of Rice Blast
Helminthosporium maydis = assay: southern corn leaf blight control on corn seedlings; conditions: Bipolaris maydis, 168 h
Procedure: Compounds of the previous example were again dissolved in acetone in an amount equal to 6% of the final volume and then suspended at a concentration of 100 ppm in purified water containing 250 ppm of the surfactant TREM 014 (polyhydric alcohol esters). This suspension was sprayed to the point of run-off on corn seedlings. The following day, the plants were inoculated with a spore suspension of Helminthosporium maydis, causal agent of southern corn leaf blight, and incubated in a saturated humidity chamber at 20° for 24 hours and then in a growth room for an additional 7 days, when disease ratings were made. Treated plants from successful treatments had few lesions while the untreated plants had numerous lesions on each leaf.

Erysiphe cichoracearum = assay: cucumber powdery mildew control on cucumber seedlings; conditions: Golovinomyces cichoracearum, 168 h, 7 days
Procedure: Compounds of the previous examples were again dissolved in acetone in an amount equal to 6% of the final volume and then suspended at a concentration of 100 ppm in purified water containing 250 ppm of the surfactant TREM 014 (polyhydric alcohol esters). This suspension was sprayed to the point of run-off on cucumber seedlings. The following day, the plants were inoculated with a spore suspension of the fungus Erysiphe cichoracearum, causal agent of cucumber powdery mildew, and incubated in a growth room for 7 days. Disease ratings were then made. Treated plants from successful treatments had little or no powdery mildew in contrast to untreated plants which were covered with powdery mildew.

[1] = tested on: Puccinia recondita var. tritici; assay: wheat leaf rust control on wheat seedlings; conditions: 100 ppm, sprayed day before inoculation
Procedure: Compounds of this invention were dissolved in acetone in an amount equal to 6% of the final volume and then suspended at a concentration of 100 ppm in purified water containing 250 ppm of the surfactant TREM 014 (polyhydric alcohol esters). This suspension was sprayed to the point of run-off on wheat seedlings. The following day, the plants were inoculated with a spore suspension of Puccinia recondita var. tritici, causal agent of wheat leaf rust, and incubated in a saturated humidity chamber at 20° for 24 hours and then in a growth room for an additional 7 days, when disease ratings were made. Treated plants from successful treatments had few or no rust pustules while the untreated plants had numerous rust pustules on each leaf.

Phytophthora infestans = assay: whole plant or invertebrate; conditions: Phytophthora infestans, in Solanum lycopersicum, 168 h, read-out: % Control of Tomato Late Blight
Cercospora arachidicola = assay: peanut early leafspot control on peanut seedlings; conditions: Mycosphaerella arachidis, 336 h
Procedure: Compounds of the previous examples were again dissolved in acetone in an amount equal to 6% of the final volume and then suspended at a concentration of 100 ppm in purified water containing 250 ppm of the surfactant TREM 014 (polyhydric alcohol esters). This suspension was sprayed to the point of run-off on peanut seedlings. The following day, the plants were inoculated with a spore suspension of Cercospora arachidicola, causal agent of peanut early leafspot, and incubated in a saturated humidity chamber at 27° for 24 hours and then in a growth room for an additional 14 days, when disease ratings were made. Treated plants from successful treatments had few or no leafspots while the untreated plants had numerous leafspots on each leaf.

Rhizoctonia solani = assay: rice sheath blight control on rice seedlings; conditions: Rhizoctonia solani, 168 h, 7 days
Procedure: Several compounds of the previous examples were again dissolved in acetone in an amount equal to 6% of the final volume and then suspended at a concentration of 100 ppm in purified water containing 250 ppm of the surfactant TREM 014 (polyhydric alcohol esters). This suspension was sprayed to the point of run-off on rice seedlings. The following day, the plants were inoculated with a mixture of bran and the mycelium of Rhizoctonia solani, causal agent of sheath blight of rice, and incubated in a growth room for 7 days. Disease ratings were then made. Treated plants from successful treatments had little sheath blight in contrast to untreated plants which were covered with sheath blight.

SMILES | pest or weed control at 100 ppm (Venturia inaequalis) | pest or weed control at 100 ppm (Pyricularia oryzae) | pest or weed control at 100 ppm (Helminthosporium maydis) | pest or weed control at 100 ppm (Erysiphe cichoracearum) | pest or weed control at 100 ppm [1] | pest or weed control at 100 ppm (Phytophthora infestans) | pest or weed control at 100 ppm (Cercospora arachidicola) | pest or weed control at 100 ppm (Rhizoctonia solani)
C[Si](C)(Cn1ccnc1)c1ccccc1-c1ccccc1 [(1,1'-Biphenyl-2-yl)dimethyl(1H-imidazol-1-ylmethyl)silane] | 90% | 90% | 0% | 50% | 0% | 0% | 30% | 90%
C[Si](Cn1ccnc1)(c1ccccc1)c1ccc(-c2ccccc2)cc1 (stereo not drawn) [(1,1'-Biphenyl-4-yl)(1H-imidazol-1-ylmethyl)methyl(phenyl)silane] | 0% | 0% | 80% | 100% | 100% | 0% | 80% | 0%
CC(C)(C)c1ccc([Si](C)(C)Cn2ccnc2)cc1 [[4-(1,1-Dimethylethyl)phenyl](1H-imidazol-1-ylmethyl)dimethylsilane] | 50% | 80% | 70% | 80% | 0% | 0% | 0% | 0%
Fc1ccc([Si](Cn2ccnc2)(c2ccc(F)cc2)c2ccc(F)cc2)cc1 [tris(4-Fluorophenyl)(1H-imidazol-1-ylmethyl)silane] | 0% | 0% | 0% | 100% | 80% | 0% | 0% | 0%
Clc1ccc([Si](Cn2ccnc2)(c2ccc(Cl)cc2)c2ccc(Cl)cc2)cc1 [tris(4-Chlorophenyl)(1H-imidazol-1-ylmethyl)silane] | 0% | 0% | 0% | 100% | 0% | 0% | 0% | 0%
CC(C)O[Si](C)(Cn1ccnc1)c1ccccc1 (stereo not drawn) [(1H-Imidazol-1-ylmethyl)methyl(phenyl)(2-propoxy)silane] | 0% | 0% | 0% | 90% | 0% | 0% | 0% | 0%
C[Si](Cn1ccnc1)(c1ccccc1Cl)c1ccccc1Cl [[bis(2-Chlorophenyl)](1H-imidazol-1-ylmethyl)methylsilane] | 60% | 90% | 90% | 100% | 0% | 60% | 100% | 40%
CSc1ccc([Si](C)(C)Cn2ccnc2)cc1 [Dimethyl(1H-imidazol-1-ylmethyl)(4-methylthiophenyl)silane] | 0% | 0% | 0% | 100% | 0% | 0% | 0% | 0%
CC(C)(C)O[Si](C)(Cn1ccnc1)c1ccccc1 (stereo not drawn) [(1,1-Dimethylethoxy)(1H-imidazol-1-ylmethyl)methyl(phenyl)silane] | 0% | 0% | 0% | 100% | 0% | 0% | 0% | 0%
O[Si](Cn1ccnc1)(c1ccc(F)cc1)c1ccc(F)cc1 [bis(4-Fluorophenyl)hydroxy(1H-imidazol-1-ylmethyl)silane] | 0% | 60% | 0% | 100% | 100% | 0% | 50% | 90%
C[Si](Cn1ccnc1)(c1ccc(Br)cc1)c1ccc(Br)cc1 [[bis(4-Bromophenyl)](1H-imidazol-1-ylmethyl)methylsilane] | 50% | 80% | 0% | 100% | 0% | 0% | 50% | 0%
C[Si](Cn1ccnc1)(c1ccccc1)c1ccc(Br)cc1 (stereo not drawn) [(4-Bromophenyl)(1H-imidazol-1-ylmethyl)methyl(phenyl)silane] | 30% | 0% | 0% | 100% | 90% | 0% | 90% | 0%
C[Si](C)(Cn1ccnc1)c1cccc(Cl)c1 [(3-Chlorophenyl)dimethyl(1H-imidazol-1-ylmethyl)silane] | 60% | 0% | 0% | 80% | 80% | 0% | 0% | 90%
COc1ccc([Si](C)(Cn2ccnc2)c2ccc(OC)cc2)cc1 [(1H-Imidazol-1-ylmethyl)[bis(4-methoxyphenyl)]methylsilane] | 50% | 0% | 0% | 50% | 0% | 0% | 0% | 0%
C[Si](Cn1ccnc1)(c1ccc(Cl)cc1Cl)c1ccc(Cl)cc1Cl [bis(2,4-Dichlorophenyl)(1H-imidazol-1-ylmethyl)methylsilane] | 40% | 0% | 80% | 100% | 100% | 0% | 90% | 80%
